The values that follow come from US9029368B2, “3,7-disubstituted octahydro-2H-pyrido[4,3-E][1,3]oxazin-2-one antibiotics” (Actelion Pharmaceuticals Ltd., priority 2011, dated 2015).

In brackets after ≈: the same amount, converted by molar mass. Some results are limits rather than exact numbers.

The test relates to S. aureus 29213. The test can be described thus: Bacterial growth minimal inhibitory concentrations (microdilution in cation-adjusted Mueller-Hinton Broth, CLSI M7-A7). The format is cell-based. Conditions: Staphylococcus aureus, 29213, microdilution method. As for the experimental part: Bacterial Growth Minimal Inhibitory Concentrations: Minimal inhibitory concentrations (MICs; mg/l) were determined in cation-adjusted Mueller-Hinton Broth by a microdilution method following the description given in “Methods for Dilution Antimicrobial Susceptibility Tests for Bacteria that Grow Aerobically”, Approved standard, 7th ed., Clinical and Laboratory Standards Institute (CLSI) Document M7-A7, Wayne, Pa., USA, 2006. All Example compounds were tested against several Gram positive and Gram negative bacteria.
With `COc1ccc2ncc(F)c([C@@H](O)CN3CC[C@@H]4CN(c5ccc6c(c5)OCCO6)C(=O)O[C@H]4C3)c2n1` (mixture of isomers) [Example 13, (4aR*,8aR*)-3-(2,3-dihydro-benzo[1,4]dioxin-6-yl)-7-[(R)-2-(3-fluoro-6-methoxy-[1,5]naphthyridin-4-yl)-2-hydroxy-ethyl]-octahydro-pyrido[4,3-e][1,3]oxazin-2-one], the MIC is 0.063 µg/mL.

Consider `COc1ccc2nccc(C(O)CN3CC[C@@H]4CN(c5ccc6c(c5)OCCO6)C(=O)O[C@H]4C3)c2n1` (mixture of isomers) [Example 3, (4aR*,8aR*)-3-(2,3-dihydro-benzo[1,4]dioxin-6-yl)-7-[(2RS)-2-hydroxy-2-(6-methoxy-[1,5]naphthyridin-4-yl)-ethyl]-octahydro-pyrido[4,3-e][1,3]oxazin-2-one], for which the MIC worked out at 0.125 µg/mL (≈ 0.254 µM).

Compound `COc1ccc2nccc(CCN3CC[C@@H]4CN(c5ccc6c(c5)OCCO6)C(=O)O[C@H]4C3)c2n1` (racemic) [Example 4, rac-(4aR*,8aR*)-3-(2,3-dihydro-benzo[1,4]dioxin-6-yl)-7-[2-(6-methoxy-[1,5]naphthyridin-4-yl)-ethyl]-octahydro-pyrido[4,3-e][1,3]oxazin-2-one] had an MIC of 0.063 µg/mL (≈ 0.132 µM). Against the preceding compound, the MIC is about 2-fold lower.

`COc1ccc2ncc(F)c(CCN3CC[C@@H]4CN(c5ccc6c(c5)NC(=O)CO6)C(=O)O[C@H]4C3)c2n1` (racemic) [Example 5, rac-(4aR*,8aR*)-7-[2-(3-fluoro-6-methoxy-[1,5]naphthyridin-4-yl)-ethyl]3-(3-oxo-3,4-dihydro-2H-benzo[1,4]oxazin-6-yl)-octahydro-pyrido[4,3-e][1,3]oxazin-2-one] showed an MIC of no more than 0.031 µg/mL.

The compound `COc1ccc2ncc(F)c(C(O)CN3CC[C@@H]4CN(c5ccc6c(c5)OCCO6)C(=O)O[C@H]4C3)c2n1` (mixture of isomers) [Example 6, (4aR*,8aR*)-3-(2,3-dihydro-benzo[1,4]dioxin-6-yl)-7-[(2RS)-2-(3-fluoro-6-methoxy-[1,5]naphthyridin-4-yl)-2-hydroxy-ethyl]-octahydro-pyrido[4,3-e][1,3]oxazin-2-one] had an MIC of 0.063 µg/mL (≈ 0.123 µM).

For the compound `COc1ccc2ncc(F)c(CCN3CC[C@@H]4CN(c5ccc6c(c5)NC(=O)CS6)C(=O)O[C@H]4C3)c2n1` (racemic) [Example 7, rac-(4aR*,8aR*)-7-[2-(3-fluoro-6-methoxy-[1,5]naphthyridin-4-yl)-ethyl]-3-(3-oxo-3,4-dihydro-2H-benzo[1,4]thiazin-6-yl)-octahydro-pyrido[4,3-e][1,3]oxazin-2-one], the minimum inhibitory concentration (MIC) was no more than 0.031 µg/mL.

In turn, `COc1ccc2ccc(=O)n(CCN3CC[C@@H]4CN(c5ccc6c(c5)OCCO6)C(=O)O[C@H]4C3)c2c1` (racemic) [Example 8, rac-(4aR*,8aR*)-3-(2,3-dihydro-benzo[1,4]dioxin-6-yl)-7-[2-(7-methoxy-2-oxo-2H-quinolin-1-yl)-ethyl]-octahydro-pyrido[4,3-e][1,3]oxazin-2-one] registered an MIC of no more than 0.031 µg/mL.

Regarding `COc1ccc2ncc(=O)n(CCN3CC[C@@H]4CN(c5ccc6c(c5)OCCO6)C(=O)O[C@H]4C3)c2c1` (racemic) [Example 9, rac-(4aR*,8aR*)-3-(2,3-dihydro-benzo[1,4]dioxin-6-yl)-7-[2-(7-methoxy-2-oxo-2H-quinoxalin-1-yl)-ethyl]-octahydro-pyrido[4,3-e][1,3]oxazin-2-one], the minimal inhibitory concentration (MIC) is no more than 0.031 µg/mL.

With `COc1ccc2ccc(=O)n(CCN3CC[C@@H]4CN(c5ccc6c(c5)OCCO6)C(=O)O[C@H]4C3)c2n1` (racemic) [Example 10, rac-(4aR*,8aR*)-3-(2,3-dihydro-benzo[1,4]dioxin-6-yl)-7-[2-(7-methoxy-2-oxo-2H-[1,8]naphthyridin-1-yl)-ethyl]-octahydro-pyrido[4,3-e][1,3]oxazin-2-one], the MIC was no more than 0.031 µg/mL.

For `COc1ccc2ncc(=O)n(CCN3CC[C@@H]4CN(c5ccc6c(c5)OCCO6)C(=O)O[C@H]4C3)c2n1` (racemic) [Example 11, rac-(4aR*,8aR*)-3-(2,3-dihydro-benzo[1,4]dioxin-6-yl)-7-[2-(6-methoxy-3-oxo-3H-pyrido[2,3-b]pyrazin-4-yl)-ethyl]-octahydro-pyrido[4,3-e][1,3]oxazin-2-one], the MIC was no more than 0.031 µg/mL.

In the case of `COc1cnc2ccc(=O)n(CCN3CC[C@@H]4CN(c5ccc6c(c5)OCCO6)C(=O)O[C@H]4C3)c2n1` (racemic) [Example 12, rac-(4aR*,8aR*)-3-(2,3-dihydro-benzo[1,4]dioxin-6-yl)-7-[2-(3-methoxy-6-oxo-6H-pyrido[2,3-b]pyrazin-5-yl)-ethyl]-octahydro-pyrido[4,3-e][1,3]oxazin-2-one], the MIC is no more than 0.031 µg/mL.

With `COc1ccc2ccc(F)c(C(O)CN3CC[C@@H]4CN(c5ccc6c(c5)OCCO6)C(=O)O[C@H]4C3)c2n1` (mixture of isomers) [Example 16, (4aR*,8aR*)-3-(2,3-dihydro-benzo[1,4]dioxin-6-yl)-7-[(2RS)-2-(7-fluoro-2-methoxy-quinolin-8-yl)-2-hydroxy-ethyl]-octahydro-pyrido[4,3-e][1,3]oxazin-2-one], the MIC worked out at 0.125 µg/mL (≈ 0.245 µM).

The compound `COc1cnc2ccc(F)c(C(O)CN3CC[C@@H]4CN(c5ccc6c(c5)OCCO6)C(=O)O[C@H]4C3)c2n1` (mixture of isomers) [Example 17, (4aR*,8aR*)-3-(2,3-dihydro-benzo[1,4]dioxin-6-yl)-7-[(2RS)-2-(6-fluoro-3-methoxy-quinoxalin-5-yl)-2-hydroxy-ethyl]-octahydro-pyrido[4,3-e][1,3]oxazin-2-one] showed an MIC of 0.063 µg/mL (≈ 0.123 µM).

`COc1cnc2cccc(C(O)CN3CC[C@@H]4CN(c5ccc6c(c5)OCCO6)C(=O)O[C@H]4C3)c2n1` (mixture of isomers) [Example 18, (4aR*,8aR*)-3-(2,3-dihydro-benzo[1,4]dioxin-6-yl)-7-[(2RS)-2-hydroxy-2-(3-methoxy-quinoxalin-5-yl)-ethyl]-octahydro-pyrido[4,3-e][1,3]oxazin-2-one] displayed an MIC of 0.063 µg/mL (≈ 0.128 µM).

Compound `COc1ccc2ncc(F)c(CCN3CC[C@@H]4CN(c5ccc6c(n5)NC(=O)CO6)C(=O)O[C@H]4C3)c2n1` (racemic) [Example 19, rac-(4aR*,8aR*)-7-[2-(3-fluoro-6-methoxy-[1,5]naphthyridin-4-yl)-ethyl]3-(3-oxo-3,4-dihydro-2H-pyrido[3,2-b][1,4]oxazin-6-yl)-octahydro-pyrido[4,3-e][1,3]oxazin-2-one] yielded an MIC of no more than 0.031 µg/mL.

Compound `COc1ccc2ncc(F)c(CCN3CC[C@@H]4CN(c5cnc6c(c5)OCCO6)C(=O)O[C@H]4C3)c2n1` (racemic) [Example 22, rac-(4aR*,8aR*)-3-(2,3-dihydro-[1,4]dioxino[2,3-b]pyridin-7-yl)-7-[2-(3-fluoro-6-methoxy-[1,5]naphthyridin-4-yl)-ethyl]-octahydro-pyrido[4,3-e][1,3]oxazin-2-one] displayed a minimum inhibitory concentration (MIC) of no more than 0.031 µg/mL.

Take `COc1ccc2ncc(F)c(CCN3CC[C@@H]4CN(c5cc6c(nn5)OCCO6)C(=O)O[C@H]4C3)c2n1` (racemic) [Example 23, rac-(4aR*,8aR*)-3-(6,7-dihydro-[1,4]dioxino[2,3-c]pyridazin-3-yl)-7-[2-(3-fluoro-6-methoxy-[1,5]naphthyridin-4-yl)-ethyl]-octahydro-pyrido[4,3-e][1,3]oxazin-2-one]: the MIC is no more than 0.031 µg/mL.

As for `COc1ccc2ncc(F)c(CCN3CC[C@@H]4CN(c5cc6c(cn5)OCCO6)C(=O)O[C@H]4C3)c2n1` (racemic) [Example 24, rac-(4aR*,8aR*)-3-(2,3-dihydro-[1,4]dioxino[2,3-c]pyridin-7-yl)-7-[2-(3-fluoro-6-methoxy-[1,5]naphthyridin-4-yl)-ethyl]-octahydro-pyrido[4,3-e][1,3]oxazin-2-one], the MIC was no more than 0.031 µg/mL.

As to `COc1ccc2ccc(=O)n(CCN3CC[C@@H]4CN(c5ccc6c(n5)NC(=O)CO6)C(=O)O[C@H]4C3)c2n1` (racemic) [Example 25, rac-(4aR*,8aR*)-7-[2-(7-methoxy-2-oxo-2H-[1,8]naphthyridin-1-yl)-ethyl]-3-(3-oxo-3,4-dihydro-2H-pyrido[3,2-b][1,4]oxazin-6-yl)-octahydro-pyrido[4,3-e][1,3]oxazin-2-one], the MIC is no more than 0.031 µg/mL.

For `COc1ccc2ccc(=O)n(CCN3CC[C@@H]4CN(c5ccc6c(n5)NC(=O)CS6)C(=O)O[C@H]4C3)c2n1` (racemic) [Example 26, rac-(4aR*,8aR*)-7-[2-(7-methoxy-2-oxo-2H-[1,8]naphthyridin-1-yl)-ethyl]-3-(3-oxo-3,4-dihydro-2H-pyrido[3,2-b][1,4]thiazin-6-yl)-octahydro-pyrido[4,3-e][1,3]oxazin-2-one], the MIC is no more than 0.031 µg/mL.

For the compound `COc1ccc2ncc(F)c(CCN3CC[C@@H]4CN(c5cc6c(nn5)OCCS6)C(=O)O[C@H]4C3)c2n1` (racemic) [Example 27, rac-(4aR*,8aR*)-3-(6,7-dihydro-8-oxa-5-thia-1,2-diaza-naphthalen-3-yl)-7-[2-(3-fluoro-6-methoxy-[1,5]naphthyridin-4-yl)-ethyl]-octahydro-pyrido[4,3-e][1,3]oxazin-2-one], the MIC is no more than 0.031 µg/mL.

Compound `COc1ccc2ncc(=O)n(CCN3CC[C@@H]4CN(c5cc6c(nn5)OCCS6)C(=O)O[C@H]4C3)c2n1` (racemic) [Example 28, rac-(4aR*,8aR*)-3-(6,7-dihydro-8-oxa-5-thia-1,2-diaza-naphthalen-3-yl)-7-[2-(6-methoxy-3-oxo-3H-pyrido[2,3-b]pyrazin-4-yl)-ethyl]-octahydro-pyrido[4,3-e][1,3]oxazin-2-one] showed an MIC of no more than 0.031 µg/mL.

The compound `O=C1O[C@H]2CN(CC3Cn4c(=O)ccc5ncc(F)c3c54)CC[C@@H]2CN1c1ccc2c(c1)OCCO2` (mixture of isomers) [Example 30, (RS)-4-[(4aR*,8aR*)-3-(2,3-dihydro-benzo[1,4]dioxin-6-yl)-2-oxo-octahydro-pyrido[4,3-e][1,3]oxazin-7-ylmethyl]-3-fluoro-4,5-dihydro-pyrrolo[3,2,1-de][1,5]naphthyridin-7-one] showed an MIC of 0.5 µg/mL (≈ 1.02 µM).
